Data published in US20240317716A1, “METHOD FOR PREPARING XANTHINE OXIDASE INHIBITOR” (LG CHEM, LTD., priority 2021, published 2024).
≈ marks a conversion by molar mass, not a printed value.

Assay: Solubility of 1-(3-cyano-1-isopropyl-indol-5-yl)pyrazole-4-carboxylic acid in organic solvents
Assay type: physicochemical
Conditions: organic solvent or mixture

- solubility (in ACN): ≤ 0.1 mg/mL
- solubility (in EtOAc): ≤ 0.1 mg/mL
- solubility (in MeOH): ≤ 0.1 mg/mL
- solubility (in acetone): 0.1 to 1 mg/mL (≈ 340 to 3400 µM)
SMILES: CC(C)n1cc(C#N)c2cc(-n3cc(C(=O)O)cn3)ccc21 [1-(3-Cyano-1-isopropyl-indol-5-yl)pyrazole-4-carboxylic acid]
